The conditions of data set [1]: human.
The conditions of data set [2]: human. The source holds these as a separate data set.
The conditions of data set [3]: human, serum, 4383 h.
The conditions of data set [4]: human. The source holds these as a separate data set.
For data set [5] the following is noted: human. The source holds these as a separate data set.
Data set [6] is described as follows: Highest frequency of moderate liver toxicity observed during clinical trials, expressed as a percentage. [column '% BIOL' in source]. As to conditions: human.
The nature of data set [7]: Highest frequency of acute liver toxicity observed during clinical trials, expressed as a percentage. [column '% AIGUE' in source]. Particulars: human.
For data set [8] the following is noted: human. The source holds these as a separate data set.
For data set [9] the following is noted: human. The source holds these as a separate data set.
The conditions of data set [10]: human. This is another data set of the same source.
The conditions of data set [11]: human. The source holds these as a separate data set.
For data set [12] the following is noted: human, serum.
For data set [13] the following is noted: human. This is another data set of the same source.
The conditions of data set [14]: human, serum. The source holds these as a separate data set.

Eleven compounds from ChEMBL document CHEMBL3137667, “[Drug-induced liver injury; fourteenth updated edition of the bibliographic database of liver injuries and related drugs]” (Gastroenterol Clin Biol, 2004) can be followed below.
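For Hepatotoxicity (association with vascular disease) in this document: count of indexed literature references reporting vascular liver injury in humans, e.g. peliosis hepatitis, hepatic veno-occlusive disease or Budd-Chiari syndrome.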
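For Hepatotoxicity (benign tumour) in this document: value is a count of indexed literature references citing a benign tumour confirmed by histopathology.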
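For Hepatotoxicity (choleostasis) in this document: human cholestatic liver injury, shown by histopathology or by peak ALT or AST elevation over alkaline phosphatase ratio below 2, value counts indexed literature reports.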
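For Hepatotoxicity (chronic liver disease) in this document: chronic liver injury confirmed by histopathology or persistently raised serum aminotransferase activity beyond 6 months, value given as the count of indexed literature references.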
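For Hepatotoxicity (cirrhosis) in this document: value is a count of indexed literature references reporting cirrhosis confirmed by histopathology.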
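For Hepatotoxicity (cytolytic) in this document: human cytolytic liver injury, shown by histopathology or by a ratio above 5 of peak ALT or AST elevation to alkaline phosphatase elevation, value counts indexed references.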
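For Hepatotoxicity (granulomatous hepatitis) in this document: value is a count of indexed literature references reporting granulomatous liver disease confirmed by histopathology.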
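For Hepatotoxicity (malignant tumour) in this document: malignant tumour confirmed by histopathology, value gives the count of indexed literature references reporting it.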
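For Hepatotoxicity (severe hepatitis) in this document: human clinical data: severe hepatitis, meaning potentially life-threatening liver failure or clinically observed cases, the value counts how many indexed literature references report it.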
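For Hepatotoxicity (steatosis) in this document: steatosis confirmed by histopathology, value is the count of indexed references.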

As to `CCCC(=O)O[C@H]1[C@H](C)O[C@@H](O[C@H]2[C@H](N(C)C)[C@@H](O)[C@H](O[C@H]3[C@@H](CC=O)C[C@@H](C)[C@@H](O)/C=C/C=C/C[C@@H](C)OC(=O)C[C@@H](O)[C@@H]3OC)O[C@@H]2C)C[C@@]1(C)OC(=O)CC` [ROKITAMYCIN], in data set [1], the “Hepatotoxicity (severe hepatitis)” value was 0. Further, in [2], the “Hepatotoxicity (malignant tumour)” value is 0. Besides, in [3], the “Hepatotoxicity (chronic liver disease)” value came out at 0. Also, in data set [4], the “Hepatotoxicity (association with vascular disease)” value stood at 0. For the same compound, the “Hepatotoxicity (steatosis)” value in data set [5] stood at 0. The “Hepatotoxicity (moderate)” value in [6] amounted to 5%; in [14] it was 4. Further, the “Hepatotoxicity (acute)” value in data set [7] was 0%; in [12], 0. In addition, the “Hepatotoxicity (cytolytic)” value in data set [8] is reported as 0. For the same compound, the “Hepatotoxicity (choleostasis)” value in data set [9] is 0. Also, the “Hepatotoxicity (benign tumour)” value in data set [10] worked out at 0. The “Hepatotoxicity (cirrhosis)” value in data set [11] was 0. For the same compound, in [13], the “Hepatotoxicity (granulomatous hepatitis)” value is on record as 0.
Consider `CC(C)c1nc(N(C)S(C)(=O)=O)nc(-c2ccc(F)cc2)c1/C=C/[C@@H](O)C[C@@H](O)CC(=O)O` [ROSUVASTATIN], for which the “Hepatotoxicity (severe hepatitis)” value in data set [1] is 0. Also, the “Hepatotoxicity (malignant tumour)” value in data set [2] was 0. The “Hepatotoxicity (chronic liver disease)” value in data set [3] was 0. Moreover, in data set [4], the “Hepatotoxicity (association with vascular disease)” value worked out at 0. Besides, the “Hepatotoxicity (steatosis)” value in [5] came out at 0. Besides, the figures for the “Hepatotoxicity (moderate)” value in [6] and in [14] were 0% and 0, respectively. The “Hepatotoxicity (acute)” value came to 0.1% in data set [7] and 1 in data set [12]. Further, in data set [8], the “Hepatotoxicity (cytolytic)” value is recorded as 1. Further, the “Hepatotoxicity (choleostasis)” value in data set [9] is reported as 0. The “Hepatotoxicity (benign tumour)” value in data set [10] was found to be 0. Also, the “Hepatotoxicity (cirrhosis)” value in [11] stood at 0. The “Hepatotoxicity (granulomatous hepatitis)” value in [13] was 0.
Consider `Oc1ccc2[nH]cc(CCCCN3CC=C(c4ccccc4)CC3)c2c1` [ROXINDOLE], for which the “Hepatotoxicity (severe hepatitis)” value in [1] amounted to 0. The “Hepatotoxicity (malignant tumour)” value in data set [2] turned out to be 0. Moreover, the “Hepatotoxicity (chronic liver disease)” value in data set [3] came to 0. Further, in [4], the “Hepatotoxicity (association with vascular disease)” value is 0. Moreover, in data set [5], the “Hepatotoxicity (steatosis)” value worked out at 0. Besides, the “Hepatotoxicity (moderate)” value is 10% in [6] and 1 in [14]. Moreover, the figures for the “Hepatotoxicity (acute)” value in [7] and in [12] were 0% and 0, respectively. In addition, the “Hepatotoxicity (cytolytic)” value in data set [8] turned out to be 0. Also, the “Hepatotoxicity (choleostasis)” value in data set [9] is 0. Besides, in [10], the “Hepatotoxicity (benign tumour)” value was 0. Also, the “Hepatotoxicity (cirrhosis)” value in data set [11] stood at 0. In addition, the “Hepatotoxicity (granulomatous hepatitis)” value in data set [13] stood at 0.
Take `OCc1cc(C(O)CNCCCCCCOCCCCc2ccccc2)ccc1O` (centres undefined) [SALMETEROL]: in data set [1], the “Hepatotoxicity (severe hepatitis)” value is listed as 0. In addition, the “Hepatotoxicity (malignant tumour)” value in data set [2] worked out at 0. Moreover, the “Hepatotoxicity (chronic liver disease)” value in [3] came to 0. Moreover, in data set [4], the “Hepatotoxicity (association with vascular disease)” value turned out to be 0. In addition, the “Hepatotoxicity (steatosis)” value in data set [5] turned out to be 0. For the same compound, the “Hepatotoxicity (moderate)” value in data set [6] stood at 1.8%; in data set [14], 1. Also, the “Hepatotoxicity (acute)” value in [7] is 0%; in data set [12], 0. Further, in [8], the “Hepatotoxicity (cytolytic)” value was 0. Further, the “Hepatotoxicity (choleostasis)” value in data set [9] came to 0. Besides, in [10], the “Hepatotoxicity (benign tumour)” value was determined as 0. Also, in data set [11], the “Hepatotoxicity (cirrhosis)” value turned out to be 0. Further, in [13], the “Hepatotoxicity (granulomatous hepatitis)” value is listed as 0.
In the case of `O=C1NCCN1CCN1CCC(c2cn(-c3ccc(F)cc3)c3ccc(Cl)cc23)CC1` [SERTINDOLE], the “Hepatotoxicity (severe hepatitis)” value in data set [1] worked out at 0. Moreover, in data set [2], the “Hepatotoxicity (malignant tumour)” value amounted to 0. In addition, the “Hepatotoxicity (chronic liver disease)” value in data set [3] was 0. The “Hepatotoxicity (association with vascular disease)” value in [4] was found to be 0. The “Hepatotoxicity (steatosis)” value in data set [5] is reported as 0. The “Hepatotoxicity (moderate)” value in data set [6] is reported as 1.4%; in data set [14] it was 1. Further, the “Hepatotoxicity (acute)” value in data set [7] turned out to be 0%; in data set [12], 0. Moreover, the “Hepatotoxicity (cytolytic)” value in data set [8] was 0. Also, in data set [9], the “Hepatotoxicity (choleostasis)” value is 0. In data set [10], the “Hepatotoxicity (benign tumour)” value was 0. Further, in data set [11], the “Hepatotoxicity (cirrhosis)” value is recorded as 0. For the same compound, in data set [13], the “Hepatotoxicity (granulomatous hepatitis)” value was determined as 0.
Consider `CN[C@@H]1[C@@H](O)[C@@H](O[C@@H]2[C@@H](O)[C@H](O[C@H]3OC(CN)=CC[C@H]3N)[C@@H](N)C[C@H]2N)OC[C@]1(C)O` [SISOMICIN], for which, in data set [1], the “Hepatotoxicity (severe hepatitis)” value is recorded as 0. The “Hepatotoxicity (malignant tumour)” value in [2] was 0. Further, the “Hepatotoxicity (chronic liver disease)” value in [3] was 0. Further, the “Hepatotoxicity (association with vascular disease)” value in data set [4] stood at 0. Moreover, the “Hepatotoxicity (steatosis)” value in [5] is reported as 0. The figures for the “Hepatotoxicity (moderate)” value in data set [6] and in data set [14] were 5.7% and 2, respectively. The “Hepatotoxicity (acute)” value in data set [7] is on record as 0%; in [12], 0. Further, the “Hepatotoxicity (cytolytic)” value in [8] was 0. Moreover, the “Hepatotoxicity (choleostasis)” value in data set [9] is recorded as 0. For the same compound, in data set [10], the “Hepatotoxicity (benign tumour)” value is 0. Moreover, in [11], the “Hepatotoxicity (cirrhosis)” value came out at 0. In addition, the “Hepatotoxicity (granulomatous hepatitis)” value in data set [13] was 0.
Consider `N[C@@H]1CN(c2c(F)cc3c(=O)c(C(=O)O)cn([C@@H]4C[C@@H]4F)c3c2Cl)CC12CC2` [SITAFLOXACIN ANHYDROUS], for which the “Hepatotoxicity (severe hepatitis)” value in [1] is listed as 0. Further, the “Hepatotoxicity (malignant tumour)” value in [2] was found to be 0. Besides, the “Hepatotoxicity (chronic liver disease)” value in [3] was determined as 0. In addition, in [4], the “Hepatotoxicity (association with vascular disease)” value is 0. Further, the “Hepatotoxicity (steatosis)” value in [5] came to 0. The “Hepatotoxicity (moderate)” value in data set [6] worked out at 23.2%; in data set [14] it was 6. In addition, the “Hepatotoxicity (acute)” value in data set [7] is recorded as 0%; in data set [12], 0. Besides, the “Hepatotoxicity (cytolytic)” value in data set [8] came out at 0. Also, in data set [9], the “Hepatotoxicity (choleostasis)” value worked out at 0. Further, the “Hepatotoxicity (benign tumour)” value in data set [10] is given as 0. Also, the “Hepatotoxicity (cirrhosis)” value in [11] is on record as 0. Further, the “Hepatotoxicity (granulomatous hepatitis)” value in data set [13] is 0.
For `Cc1cc2c(cc1CC(=O)c1sccc1S(=O)(=O)Nc1onc(C)c1Cl)OCO2` [SITAXENTAN], the “Hepatotoxicity (severe hepatitis)” value in data set [1] was 0. For the same compound, the “Hepatotoxicity (malignant tumour)” value in [2] is given as 0. Besides, the “Hepatotoxicity (chronic liver disease)” value in data set [3] was found to be 0. Also, the “Hepatotoxicity (association with vascular disease)” value in [4] is on record as 0. The “Hepatotoxicity (steatosis)” value in data set [5] is given as 0. Moreover, the “Hepatotoxicity (moderate)” value in data set [6] came to 0%; in [14], 1. For the same compound, the “Hepatotoxicity (acute)” value in data set [7] was determined as 0%; in data set [12] it was 0. The “Hepatotoxicity (cytolytic)” value in data set [8] was 0. Moreover, the “Hepatotoxicity (choleostasis)” value in data set [9] came out at 0. In [10], the “Hepatotoxicity (benign tumour)” value is 0. In addition, in [11], the “Hepatotoxicity (cirrhosis)” value worked out at 0. Also, in data set [13], the “Hepatotoxicity (granulomatous hepatitis)” value worked out at 0.
Consider `O=c1[nH]c(=O)n([C@@H]2O[C@H](CO)[C@@H](O)[C@@H]2O)cc1/C=C/Br` [SORIVUDINE], for which the “Hepatotoxicity (severe hepatitis)” value in [1] is given as 0. The “Hepatotoxicity (malignant tumour)” value in data set [2] came out at 0. Besides, in [3], the “Hepatotoxicity (chronic liver disease)” value came out at 0. Besides, the “Hepatotoxicity (association with vascular disease)” value in [4] is 0. Moreover, the “Hepatotoxicity (steatosis)” value in data set [5] was found to be 0. In addition, the “Hepatotoxicity (moderate)” value in data set [6] was 2%; in data set [14], 1. Moreover, the “Hepatotoxicity (acute)” value in data set [7] turned out to be 0%; in [12], 0. For the same compound, in data set [8], the “Hepatotoxicity (cytolytic)” value came out at 0. The “Hepatotoxicity (choleostasis)” value in data set [9] is listed as 0. The “Hepatotoxicity (benign tumour)” value in [10] is 0. Moreover, the “Hepatotoxicity (cirrhosis)” value in data set [11] came out at 0. Further, the “Hepatotoxicity (granulomatous hepatitis)” value in data set [13] came out at 0.
As for `C[C@@H]1CN(c2c(F)c(N)c3c(=O)c(C(=O)O)cn(C4CC4)c3c2F)C[C@H](C)N1` [SPARFLOXACIN], the “Hepatotoxicity (severe hepatitis)” value in data set [1] is reported as 0. In data set [2], the “Hepatotoxicity (malignant tumour)” value is 0. Besides, the “Hepatotoxicity (chronic liver disease)” value in [3] stood at 0. Also, the “Hepatotoxicity (association with vascular disease)” value in data set [4] is 0. In data set [5], the “Hepatotoxicity (steatosis)” value was determined as 0. The “Hepatotoxicity (moderate)” value in [6] is on record as 20%; in data set [14] it was 29. Further, the “Hepatotoxicity (acute)” value in data set [7] is reported as 0%; in [12] it was 0. Besides, the “Hepatotoxicity (cytolytic)” value in data set [8] is recorded as 0. For the same compound, the “Hepatotoxicity (choleostasis)” value in [9] is listed as 0. Moreover, the “Hepatotoxicity (benign tumour)” value in data set [10] is on record as 0. In addition, the “Hepatotoxicity (cirrhosis)” value in data set [11] is reported as 0. In data set [13], the “Hepatotoxicity (granulomatous hepatitis)” value came to 0.
Consider `Cc1nc(NS(=O)(=O)c2ccc(N)cc2)oc1C` [SULFAMOXOLE], for which, in data set [1], the “Hepatotoxicity (severe hepatitis)” value amounted to 0. The “Hepatotoxicity (malignant tumour)” value in [2] was found to be 0. Moreover, the “Hepatotoxicity (chronic liver disease)” value in data set [3] came out at 0. Further, in data set [4], the “Hepatotoxicity (association with vascular disease)” value stood at 0. Also, the “Hepatotoxicity (steatosis)” value in data set [5] came out at 0. The “Hepatotoxicity (moderate)” value in [6] amounted to 0%; in data set [14] it was 0. In addition, the “Hepatotoxicity (acute)” value in [7] was found to be 0%; in data set [12] it was 1. Also, the “Hepatotoxicity (cytolytic)” value in [8] is on record as 0. Moreover, the “Hepatotoxicity (choleostasis)” value in data set [9] came out at 0. Also, in data set [10], the “Hepatotoxicity (benign tumour)” value is on record as 0. For the same compound, the “Hepatotoxicity (cirrhosis)” value in data set [11] was 0. Also, the “Hepatotoxicity (granulomatous hepatitis)” value in [13] was 0.
